Assay [1] relates to OVA-induced asthmatic mice. Nature of the assay: OVA-induced bronchial asthma mouse model, Standard/Resolution protocols, drug before each i.n. challenge. Type of assay: in vivo, mouse (female BALB/c). The settings on record: 1-, 2- and 3-month groups, versus OVA. An excerpt:
The OVA-Induced Bronchial Asthma Mouse Model for Inhibition of Mast Cell Degranulation
Reagents: Crystalline OVA was obtained from Pierce Chem. Co. (Rockford, Ill.) aluminum potassium sulfate (alum) from Sigma Chem. Co. (St. Louis, Mo.), pyrogen-free distilled water from Baxter, Healthcare Corporation (Deerfield, Ill.), 0.9% sodium chloride (normal saline) from Lymphomed (Deerfield, Ill.) and Trappsol™ HPB-L100 (aqueous hydroxypropyl beta cyclodextrin; 45 wt/vol % aqueous solution) from Cyclodextrin Technologies Development, Inc. (Gainesville, Fla.). The OVA (500 μg/ml in normal saline) was mixed with equal volumes of 10% (wt/vol) alum in distilled water. The mixture (pH 6.5 using 10 N NaOH) after incubation for 60 minutes at room temperature underwent centrifugation at 750 g for 5 minutes; the pellet was resuspended to the original volume in distilled water and used within one hour.
The selective 5-lipoxtgenase inhibitor, Zileuton (N-[1-benzo[b]thien-2-ylethyl]-N-hydroxyurea; J. Pharmacol Exp Ther. 1991; 256: 929-937), was kindly provided by Drs. Bell and George W. Carter (Abbott Laboratories, Abbott Part, Ill.). Zileuton was dissolved in Trappsol.™. Histatek, Inc. (Seattle, Wash.) provided the mast cell degranulation inhibitor, f-Met-Leu-Phe-Phe (“HK-X”).
Female BALB/c […] (6-8 wk of age at purchase; D and K, Seattle Wash.) were housed under conventional conditions for the studies.
Allergen Immunization/Challenge Protocols: Mice received an i.p. injection of 0.2 ml (100 μg) of OVA with alum on the different protocols of Standard (FIG. 5A) and Resolution (FIG. 5B) (J. Exp Med. 1996; 184: 1483-1494). According to the different protocols, mice were anesthetized with 0.2 ml i.p. of ketamine (0.44 mg/ml)/xylazine (6.3 mg/ml) in normal saline before receiving an intranasal (i.n.) does of 100 μg OVA in 0.05 ml normal saline and an i.n. dose of 50 μg OVA in 0.05 ml normal saline separately on different days. Two control groups were used. Accordingly, the first group received normal saline with alum i.p. and normal saline without alum i.n.; the second group received OVA with alum i.p., OVA without alum i.n., and normal saline, alone.
The trachea and left lung (the right lung is used for bronchoalveolar lavage (“BAL”)) were obtained and fixed in 10% neutral formaldehyde solution at room temperature for 6˜15h. After being embedded in paraffin, the tissues were cut into 5-um sections and processed with the different staining or immunolabling further. Discombe's eosinophil staining was used for counting the cell numbers with the counterstain of methylene blue. The eosinophil number per unit airway area (2,200 μm^2) was determined by morphometry (J. Pathol. 1992; 166: 395-404; Am Rev Respir Dis. 1993; 147:448-456). Fibrosis was identified with the Masson's trichrome staining. Airway mucus was identified by the following staining method: methylene blue, hematoxylin and eosin, mucicarmine, alcian blue, and alcian blue/periodic acid-Schiff (PAS) reaction (Troyer, H., “Carbohydrates” in Principles and Techniques of Histochemistry, Little, Brown and Company, Boston, Mass., 1980: 89-121; Sheehan, D. C., et al., “Carbohydrates” in Theory and Practice of Histotechnology, Battle Press, Columbus, Ohio, 1980: 159-179). Mucin was stained with mucicarmine solution; metanil yellow counterstain was employed.
Acidic mucin and sulfated mucosubstances were stained with alcian blue, pH 2.5; nuclear fast red counterstain was used. Neutral and acidic mucosubstances were identified by alcian blue. pH 2.5, and PAS reaction. The degree of mucus plugging of the airways (0.5-0.8 mm in diameter) was also assessed by morphometry. The percent occlusion of airway diameter by mucus was classified on a semiquantitative scale from 0 to 4+ as described in Figure Legends. The histologic and morphometric analyses were performed by individuals blinded to the protocol design. […]

The subject of the next assay is mast cells. Nature of the assay: Rat skin model for inhibition of mast cell degranulation induced by Compound 48/80 (area of capillary permeability/bluing). It counts as in vivo, rat (male Sprague-Dawley). The conditions noted are these: for % Degranulation: percent mast cell degranulation produced by 48/80, 100 nanomoles peptide, 0.15 μg Compound 48/80. An excerpt:
The Rat Skin Model for Determination of Inhibition of Mast Cell Degranulation
Allergy induced asthma results from exposure of substances (allergens) to which an organism has become hypersensitized. Exposure to allergen results in degranulation of mast cells in the lung, releasing leukotrienes and histamines. […] Respiratory symptoms resulting from such an exposure range from mild (itching and sneezing) to potentially fatal (asthma), including in extreme chronic cases death by anaphylaxis.
In this model, the blood plasma of the experimental rat is labeled with the dye trypan blue. This soluble dye is carried in the bloodstream as a passive marker of plasma itself, and is excluded from live cells. Intact blood vessels including the capillary system, retain this dye under normal circumstances. A compound, which induces degranulation of mast cells (resulting in leukotriene and histamine release), is injected into the skin to simulate allergen-induced degranulation. In these experiments, Compound 48/80 was used for this purpose. In the events following leukotriene and histamine release, capillary permeability is increased, and plasma, dyed blue, leaks from capillaries and dyes the skin surrounding the injection site blue. The area of bluing is a measure of the amount of Compound 48/80 injected.
A compound can be tested for “anti-leukotriene” and/or “anti-histamine” activity by mixing it with Compound 48/80 prior to injection.
The rat skin model was undertaken and validated. Various peptides were tested at a predetermined dose for anti-leukotriene and/or anti-histamine activity. The dose selected allowed a general comparison to f-Met-Leu-Phe, which was standard compound for comparison.
A “dose response” titration was performed for some compounds and compared with the standard compound. Observing serial decreases in the size areas of capillary permeability using serially smaller doses of the putative inhibitory compound validates the inhibition of leukotriene and/or histamine release observed in the initial predetermined dose test.
Reagents were obtained from Sigma or Aldrich, with the exception of ketamine, a veterinary anaesthetic that was obtained from various veterinary suppliers. The rats used were male Sprague-Dawley breed, 220-240 g at time of purchase from B&K International.
For the rat skin reaction, rats were anaesthetized with 0.25 ml 10 mg/ml ketamine. 1.0 ml trypan blue in saline (sterile filtered) was administered in a tail vein, and the back of the rat was shaved. Four intradermal injection sites per rat were used for test and control injections.
Compound 48/80 was prepared as a 1.5 mg/ml stock solution in saline. […] Serial dilutions in saline to working levels were prepared just prior to injection of each rat.
Peptides were prepared as a 23 mM stock solution in DMSO, and stored at −20° C. between experiments. At the time of use, the frozen stock solutions were thawed, and appropriate aliquots added to dilutions of Compound 48/80, along with appropriate amounts of DMSO, to result in the ratio of 5 μl DMSO to 0.1 ml aqueous Compound 48/80.
For injections, 0.1 ml Compound […], +/− test compounds were injected intradermally into anaesthetized, dyed, and shaved rats. Following a 15 minute incubation, the rats were sacrificed by cervical dislocation and the back skin was evulsed and placed on a light box. An image of the backlit skin was digitized using a CCD video capture camera and compatible hardware/software. The digitized image was analyzed using a scientific graphics analysis software package, and the areas of capillary permeability (bluing) were integrated and digital values were obtained for further analysis.
A dose response curve was generated using Compound 48/80 at various doses from ca. 0.01 μg through ca 15 μg. […] A dose of 0.15 μg of Compound 48/80 was selected for conducting further tests.
A dose response curve was prepared for the standard compound, f-Met-Leu-Phe, using the selected dose of 0.15 μg Compound 48/80. […]

In the case of `CC(c1cc2ccccc2s1)N(O)C(N)=O` (centres unmarked) [Zileuton, N-[1-benzo[b]thien-2-ylethyl]-N-hydroxyurea, reference compound], the “Reduction of airway eosinophils over time course” value in assay [1] is recorded as “reduced eosinophils generally through 1-3 month”.

As to N-acetyl-Met-Leu-Phe [Example 3], in the assay on mast cells, the “% Degranulation” value stood at 98%.

Take “f-Met-Leu-Phe [Example 2, reference compound]”: the “Inhibition of degranulation induced by Compound 48/80, dose response curve” value in the assay on mast cells (doses of 0 to about 230 nM peptide, 0.15 μg Compound 48/80 (FIG. 2, FIG. 3)) is reported as “Inhibition of degranulation induced by Compound 48/80 was clearly shown”. Moreover, the “% Degranulation” value in the assay with mast cells is reported as 60%.

As for f-Met-Leu-Tyr [Example 10], in the assay with mast cells, the “% Degranulation” value is given as 30%.

The record behind these values is patent US20030130200A1, “Small peptides and methods for treatment of asthma and inflammation” (Hisatek, LLC, priority 1997, published 2003).
